Values joined by “and” are separate entries in the source; they are usually repeats but may differ in a detail not shown here. Equal values may be shown once.
Columns and labels:
[1] = ABTS radical cation scavenging assay; details: 30 min, absorbance 734 nm; unit printed only in abstract
Experimental: 2,2″-Azino-bis (3-ethylbenzthiazoline-6-sulfonic acid) (ABTS) cation radical scavenging assay based on the decreasing ABTS radical cation, a blue/green chromophore with absorption at […], in comparison to that of BHA, BHT and Trolox. This method was executed as in the literature (Re et al. [1999]). Treatment of ABTS (2.0 mM) in phosphate buffer (0.1 M, pH 7.4) with potassium persulfate (K2S2O8) (2.45 mM) gave the ABTS^•+, kept at dark at Rt for 4 h. Initially, dilution of ABTS^•+ was performed with sodium phosphate buffer (pH 7.4, 0.1 M) to obtain absorbance 0.750 ± 0.025 at 734 nm. After all, ABTS^•+ solution (1.0 mL) was added to each extract solution in ethanol (3.0 mL) at different concentration (2.5–20 μg/mL). After 30 min, the inhibition was calculated for each concentration relative to a blank absorbance. The scavenging ability of ABTS^•+ was calculated by given equation:
ABTS^•+scavenging activity (%)=[(Ac – As)/Ac]*100 in which, Ac is the initial concentration of ABTS^•+ and As is the absorbance of the remaining concentration of ABTS^•+ in the samples.

[2] = DPPH free radical scavenging assay; details: 30 min, absorbance 517 nm
Experimental: The free radical scavenging activities of extracts and standards were evaluated by 2,2-diphenyl-1-picrylhydrazil (DPPH^•) (Blois [1958]). To a different concentration of 3.0 mL of extract (3.0–20 μg/mL) in ethanol, DPPH^• solution (1.0 mL, 0.26 mM) were added. After that it is stirred and kept at Rt for 30 min, The absorbance of the mixture was executed at 517 nm in a spectrophotometer. The activity was calculated by the below equation. DPPH• scavenging effect %=Ac-As/Ac×100
In which, Ac and As are the control and sample absorbance, respectively.

[3] = Ferric ions (Fe3+) reducing antioxidant power assay (FRAP); details: 10 μg/mL
Experimental: Different concentrations of samples (5–40 μg/mL) in 1 mL of deionized water were mixed with sodium phosphate buffer (1.25 mL, 0.2 M, pH 6.6) and potassium ferricyanide [K3Fe(CN)6] (1.25 mL, 1%). After the incubation of the mixture at 50 °C for 20 min, trichloroacetic acid (1.25 mL, 10%) and FeCl3 (0.25 mL, 0.1%) were added to the reaction medium. The reaction mixture was vortexed thoroughly and absorbance measurement at 700 nm was executed in a spectrophotometer.

[4] = test system: C6 (rat brain tumour) cell lines; experiment: BrdU cell proliferation ELISA, C6; format: cell-based; details: for IC50: C6, BrdU ELISA; for Tumour specificity C6: C6 relative to Vero; for Antiproliferative activity on C6 (in words): C6, 5-100 μg/mL
Experimental: (§1) Anticancer potential of isolated compounds was investigated on C6, HT29, HeLa and Vero cell lines. These cells were sustained with Dulbecco’s modified eagle’s medium, complemented with foetal bovine serum and PenStep solution (ATCC, American Type Culture Collection). The old medium was aspirated out of the plate while cells had reached a confluence of 80% then cells were removed from the flasks using trypsin-EDTA (4 mL) and centrifuged. Afterward, cell pellet was suspended with DMEM and was counted to gain a final concentration as 5 × 10^4 cells/mL, inoculated into wells (100 μL cells/well).
(§2) The antiproliferative activity of compounds against various cell lines (C6, HeLa and Vero cells) was tested by cell proliferation assay using BrdU Cell Proliferation ELISA kit. A cell suspension containing nearly 5 × 10^3 cells in 100 μL was conveyed into the well cell plates (96-well cell). The treatments of cells with compounds in DMSO and 5-Florouracil (5 FU) in DMSO separately at concentration 5–100 μg/mL were carried out. The last volume of the wells was adapted to 200 μL by DMEM and mixture was incubated at 37 °C with 5% CO2 for overnight (Okten et al. [2013]).
(§3) The half inhibitory concentration of the isolated compounds and standards was calculated by XLfit5 software (IDBS) and explicated in μM at 95% confidence levels (Table 1). The proliferation results were recorded as the per cent inhibition of the compounds and control substances. The following formula was used for the calculation of inhibition % Inhibition = [Asample– Acontrol/Acontrol]×100
(§4) where Asample is the absorbance of the compounds and Acontrol is the absorbance of the DMSO.

[5] = test system: HT29 (human colon carcinoma) cell lines; experiment: BrdU cell proliferation ELISA, HT29; format: cell-based; details: for Tumour specificity HT29: HT29 relative to Vero
Experimental: as §1, §2, §3, §4

[6] = test system: Vero (African green monkey kidney epithelium) cells; experiment: BrdU cell proliferation ELISA, Vero; format: cell-based; details: for IC50: BrdU ELISA; for Antiproliferative activity on Vero (in words): 5-100 μg/mL
Experimental: as §1, §2, §3, §4

[7] = test system: HeLa (human cervix carcinoma) cell lines; experiment: BrdU cell proliferation ELISA, HeLa; format: cell-based; details: for Tumour specificity HeLa: HeLa relative to Vero; for IC50: BrdU ELISA
Experimental: as §1, §2, §3, §4

[8] = Homo sapiens, HT-29, HT29, BrdU ELISA

COc1ccc(O)c(C(C)(C)C)c1 [BHA, butylated hydroxyanisole, reference compound]
ABTS radical cation scavenging IC50 [1]: 7.6 µg/mL | IC50 [2]: 12.9 µM | Reducing power (absorbance at 700 nm) [3]: 1.12

Cc1cc(C(C)(C)C)c(O)c(C(C)(C)C)c1 [BHT, Butylated hydroxytoluene, reference compound]
ABTS radical cation scavenging IC50 [1]: 5.0 µg/mL | IC50 [2]: 196 µM | Reducing power (absorbance at 700 nm) [3]: 0.81

N.N.[Cl][Pt][Cl] [Cisplatin, reference compound]
IC50 [4]: 61.5 µM | IC50 ([4]; listed as cisplatin): 61.5 µM | Tumour specificity C6 [4]: 0.66 | IC50 ([5]; HT29, BrdU ELISA): 48.6 µM | Tumour specificity HT29 [5]: 0.84 | IC50 [6]: 40.8 µM | Tumour specificity HeLa [7]: 0.92 | IC50 ([7]; HeLa): 44.2 µM

O=c1cc(-c2ccc(O)cc2)oc2cc(O)cc(O)c12 [Compound 1, Apigenin]
Antiproliferative activity on C6 (in words) [4]: Noticeable effect has not been detected | ABTS radical cation scavenging IC50 [1]: 8.9 µg/mL | Antiproliferative activity on HT29 (in words) ([5]; HT29, 5-100 μg/mL): has not a noteworthy effect | Antiproliferative activity on Vero (in words) [6]: did not reveal the remarkable activity | Antiproliferative activity on HeLa (in words) ([7]; HeLa, 5-100 μg/mL): did not reveal the noticeable activity | IC50 [2]: 173 µM | Reducing power (absorbance at 700 nm) [3]: 0.14

O=C(/C=C/c1ccc(O)c(O)c1)O[C@H](Cc1ccc(O)c(O)c1)C(=O)O [Compound 5, rosmarinic acid]
IC50 [4]: 251 µM | Tumour specificity C6 [4]: 1.11 | IC50 ([4]; Rattus norvegicus): 252 µM | ABTS radical cation scavenging IC50 [1]: 14.2 µg/mL | IC50 ([5]; HT29, BrdU ELISA): 262 µM | Tumour specificity HT29 [5]: 1.07 | IC50 [5, 8]: 262 µM | Antiproliferative activity on Vero (in words) [6]: good effect | IC50 ([6]; Chlorocebus sabaeus): 279 µM | Tumour specificity HeLa [7]: 1.19 | IC50 ([7]; Homo sapiens, HeLa): 233 µM | IC50 [2]: 47.2 µM | Reducing power (absorbance at 700 nm) [3]: 0.60

O=C(OC(Cc1ccc(O)c(O)c1)C(=O)O)c1cc(-c2ccc(O)c(O)c2)c2cc(O)c(O)cc2c1 (centres unmarked) [Compound 6, globoidnan A]
IC50 [4]: 169 µM | IC50 ([4]; Rattus norvegicus): 169 µM | ABTS radical cation scavenging IC50 [1]: 4.6 µg/mL | IC50 ([5]; HT29, BrdU ELISA): 136 µM | IC50 [5, 8]: 136 µM | Antiproliferative activity on Vero (in words) [6]: did not reveal the remarkable activity | IC50 ([7]; HeLa): 140 µM | IC50 ([7]; Homo sapiens, HeLa): 140 µM | IC50 [2]: 22.4 µM | Reducing power (absorbance at 700 nm) [3]: 1.25

Cc1c(C)c2c(c(C)c1O)CCC(C)(C(=O)O)O2 (centres unmarked) [Trolox, reference compound]
ABTS radical cation scavenging IC50 [1]: 13.8 µg/mL | Reducing power (absorbance at 700 nm) [3]: 0.61

caprolactam [Compound 4]
Antiproliferative activity on C6 (in words) [4]: Noticeable effect has not been detected | ABTS radical cation scavenging IC50 [1]: 61.5 µg/mL | Antiproliferative activity on Vero (in words) [6]: did not reveal the remarkable activity | IC50 [2]: 329 µM | Reducing power (absorbance at 700 nm) [3]: 0.08

vitexin [Compound 3]
IC50 [4]: 41.6 µM | Tumour specificity C6 [4]: 1.12 | ABTS radical cation scavenging IC50 [1]: 3.6 µg/mL and 3.7 µg/mL | IC50 ([5]; HT29, BrdU ELISA): 32.5 µM | Tumour specificity HT29 [5]: 1.43 | Antiproliferative activity on Vero (in words) [6]: effective at high concentrations | IC50 [6]: 46.7 µM | Tumour specificity HeLa [7]: 1.31 | IC50 ([7]; HeLa): 35.6 µM | IC50 [2]: 31.4 µM | Reducing power (absorbance at 700 nm) [3]: 0.27

— article PMC7012012, “Bioassay-guided isolation, identification of compounds from Origanum rotundifolium and investigation of their antiproliferative and antioxidant activities” (Pharmaceutical Biology, 2017)
